According to patent publication US20260256925A1, “INDAZOLE DERIVATIVES AS ESTROGEN RECEPTOR DEGRADERS” (REGENTS OF THE UNIVERSITY OF MICHIGAN, priority 2022, published 2026):

What was measured:
[1] = target: T1, CRBN/DDB1 (Homo sapiens, UniProt Q96SW2); format: binding; settings: HTRF, Cy5-labeled Thalidomide probe
T1 construct: purchased Wuxi RP210521GA
Method: The binding potency was determined using HTRF assay technology (Perkin Elmer). Compounds were serially diluted in DMSO and 0.2 μL volume was transferred to white 384-well plate.

[2] = target: T2, ERα_LBD (GST) (Homo sapiens, UniProt P03372); experiment: IC50 measurements for binding to ERα_LBD (GST), LanthaScreen TR-FRET ERα competitive binding assay; settings: Fluormone ES2 Green tracer, 60 min, read-out: ERα HTRF IC50
T2 construct: ERα_LBD (GST) protein: 4 nM; purchased ThermoFisher A15887
T2 sequence (P03372 311-547 limits assumed): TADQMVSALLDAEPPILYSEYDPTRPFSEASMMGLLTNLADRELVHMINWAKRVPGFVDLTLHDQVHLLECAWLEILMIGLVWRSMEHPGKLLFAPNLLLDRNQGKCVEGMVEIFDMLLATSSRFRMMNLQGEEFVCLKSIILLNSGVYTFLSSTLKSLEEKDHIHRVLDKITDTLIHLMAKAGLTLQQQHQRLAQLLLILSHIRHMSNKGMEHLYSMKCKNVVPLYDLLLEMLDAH
Method: In vitro Assay: IC50 Measurements for binding to ERα_LBD (GST)·
Final assay conditions: • 1. ERα_LBD (GST) protein: 4 nM • 2. Tb Anti-GST: 2 nM • 3. Fluormone ES2 Green tracer: 3 nM • 4. Incubation time: 60 min • 5. DMSO: 1% • 6. Assay buffer: Adding 1M DTT to Nuclear receptor Buffer K for final 5 mM DTT. • 7. ZPE: 1% DMSO • 8. HPE: 1 μM ARV_471 • 9. LanthaScreen® TR-FRET ERα Competitive Binding Assay (ThermoFisher, #A^15887)
100× Compound preparation: • 1) Cherry pick 2 μL 10 mM compound stock to column 1 of a 384 intermediate plate • 2) Add 18 μL DMSO to column 1 to dilute compound to 1 mM. • 3) Transfer 10 μL 1 mM compound to column 1 of a LDV plate. • 2) Add 6 μl DMSO to column 2-10 of the LDV plate. • 3) Compounds undergo 3-fold serial dilution (3 μL+6 μL) in DMSO. • 4) Transfer 120 nL compound solution to assay plate.
Prepare complete nuclear receptor buffer K by adding 1 M DTT to nuclear receptor buffer K for a final concentration of 5 mM DTT. Complete nuclear receptor buffer K must be prepared fresh daily. Prepare 2× protein solution using complete nuclear receptor buffer K containing 8 nM ERα_LBD (GST) and 4 nM Tb Anti-GST. Then, prepare 2× Fluormone ES2 Green tracer (6 nM) using complete nuclear receptor buffer K. Add 6 μL 2× Fluormone ES2 green tracer into a compound plate (PerkinElmer 6008289) by dragonfly with one-tips-addition. Subsequently, add 6 μL 2× protein solution into the plate. Briefly and gently mix the 384-well plate on a plate shaker and incubate at room temperature protected from light for 60 min. The plate is sealed with a cover to minimize evaporation. Read the plate at wavelengths of 520 nm and 495 nm. Calculate the TR-FRET ratio by dividing the emission signal at 520 nm by the emission signal at 495 nm. Generate a binding curve by plotting the emission ratio vs. the log [ligand]. To determine the IC50 value, fit the data using XL-fit for a sigmoidal dose-response.

[3] = target: T3, ER (Homo sapiens, UniProt P03372); experiment: In-cell Western (ICW) ER degradation assay in MCF-7 cells; format: cell-based; settings: for DC50: read-out: ER MCF7 ICW DC50
T3 construct: endogenous in cells; probably T47D or MCF-7
T3 sequence (P03372 1-595): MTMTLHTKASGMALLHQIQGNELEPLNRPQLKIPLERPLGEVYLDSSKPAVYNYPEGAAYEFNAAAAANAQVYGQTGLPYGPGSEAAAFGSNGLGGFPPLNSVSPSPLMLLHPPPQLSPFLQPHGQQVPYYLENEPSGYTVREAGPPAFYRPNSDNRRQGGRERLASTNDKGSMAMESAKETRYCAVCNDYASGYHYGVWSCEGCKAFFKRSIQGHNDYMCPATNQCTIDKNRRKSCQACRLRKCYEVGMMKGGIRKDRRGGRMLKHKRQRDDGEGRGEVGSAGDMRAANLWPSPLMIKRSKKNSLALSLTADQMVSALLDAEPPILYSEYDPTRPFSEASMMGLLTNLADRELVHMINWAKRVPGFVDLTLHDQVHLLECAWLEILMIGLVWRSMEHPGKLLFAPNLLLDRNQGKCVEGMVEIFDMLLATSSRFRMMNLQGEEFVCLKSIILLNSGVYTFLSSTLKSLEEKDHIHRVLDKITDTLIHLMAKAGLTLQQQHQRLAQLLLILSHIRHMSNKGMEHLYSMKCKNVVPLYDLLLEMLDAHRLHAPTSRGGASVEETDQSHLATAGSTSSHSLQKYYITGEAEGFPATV
Method: (§1) ERa degradative activity of compounds can be assessed in MCF-7 and T47D Cells. MCF-7 and T47D cell are seeded and are subsequently treated with the compounds at certain concentrations (e.g., 0.02 to 300 nM). DMSO can be used as vehicle control. Cells are fixed and are blocked with Intercept (PBS) Blocking Buffer (e.g., Li—COR, Odyssey Blocking Buffer), and are stained with ER (e.g., 1:500, Cell signaling) primary antibody for overnight at cold room. Secondary Antibody (e.g., IRDye 800CW Goat anti-Rabbit IgG) and CellTag 700 Stain are added in Intercept (PBS) Blocking Buffer. Finally, cell plate is placed in incubator to dry. Image and signal are captured on Odyssey® DLx Imaging System.
(§2) In-cell Western (ICW) assays in MCF-7 and T47D cell lines.
(§3) Procedures for ICW assays
(§4) In vitro Assay: MCF-7 and T47D ICW assay
(§5) Day 3: After 16 hrs of compounds treatment, cells were fixed by 4% PFA and permeabilized with elution buffer (0.1% Triton X-100 in 1% PBS Solution). Subsequently, cells were blocked with Intercept (PBS) Blocking Buffer (Li—COR, Odyssey Blocking Buffer), and were stained with ER (1:500, Cell signaling) primary antibody for overnight at cold room.
(§6) Day 4: Remove the buffer, add IRDye 800CW Goat anti-Rabbit IgG Secondary Antibody (1:2000) and CellTag 700 Stain (1:500) in Intercept (PBS) Blocking Buffer. Finally, cell plate is placed in incubator to dry. Image and signal were captured on Odyssey® DLx Imaging System.

[4] = target: T3, ER; experiment: In-cell Western (ICW) ER degradation assay in T47D cells; format: cell-based; settings: for Dmax: T47D, read-out: ER T47D ICW Dmax (%)
Method: as §1, §2, §3, §4, §5, §6

[5] = MCF7, MCF-7 cells, 16 hrs, read-out: ER MCF7 ICW Dmax (%)
[6] = MCF7, read-out: ER MCF7 ICW Dmax (%)

T1 sequence (Q96SW2 whole entry): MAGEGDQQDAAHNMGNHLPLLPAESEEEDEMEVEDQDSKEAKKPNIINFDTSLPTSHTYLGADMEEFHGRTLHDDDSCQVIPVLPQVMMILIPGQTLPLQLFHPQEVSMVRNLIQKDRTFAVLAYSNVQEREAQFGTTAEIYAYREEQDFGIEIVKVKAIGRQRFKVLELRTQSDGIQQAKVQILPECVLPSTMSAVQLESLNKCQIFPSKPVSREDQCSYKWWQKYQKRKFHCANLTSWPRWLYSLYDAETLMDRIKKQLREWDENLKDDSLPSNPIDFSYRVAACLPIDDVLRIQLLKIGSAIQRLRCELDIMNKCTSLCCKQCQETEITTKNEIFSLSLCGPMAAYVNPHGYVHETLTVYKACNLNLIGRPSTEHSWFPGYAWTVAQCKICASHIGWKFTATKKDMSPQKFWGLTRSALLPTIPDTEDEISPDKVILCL
T1 sequence (Q16531 whole entry partner): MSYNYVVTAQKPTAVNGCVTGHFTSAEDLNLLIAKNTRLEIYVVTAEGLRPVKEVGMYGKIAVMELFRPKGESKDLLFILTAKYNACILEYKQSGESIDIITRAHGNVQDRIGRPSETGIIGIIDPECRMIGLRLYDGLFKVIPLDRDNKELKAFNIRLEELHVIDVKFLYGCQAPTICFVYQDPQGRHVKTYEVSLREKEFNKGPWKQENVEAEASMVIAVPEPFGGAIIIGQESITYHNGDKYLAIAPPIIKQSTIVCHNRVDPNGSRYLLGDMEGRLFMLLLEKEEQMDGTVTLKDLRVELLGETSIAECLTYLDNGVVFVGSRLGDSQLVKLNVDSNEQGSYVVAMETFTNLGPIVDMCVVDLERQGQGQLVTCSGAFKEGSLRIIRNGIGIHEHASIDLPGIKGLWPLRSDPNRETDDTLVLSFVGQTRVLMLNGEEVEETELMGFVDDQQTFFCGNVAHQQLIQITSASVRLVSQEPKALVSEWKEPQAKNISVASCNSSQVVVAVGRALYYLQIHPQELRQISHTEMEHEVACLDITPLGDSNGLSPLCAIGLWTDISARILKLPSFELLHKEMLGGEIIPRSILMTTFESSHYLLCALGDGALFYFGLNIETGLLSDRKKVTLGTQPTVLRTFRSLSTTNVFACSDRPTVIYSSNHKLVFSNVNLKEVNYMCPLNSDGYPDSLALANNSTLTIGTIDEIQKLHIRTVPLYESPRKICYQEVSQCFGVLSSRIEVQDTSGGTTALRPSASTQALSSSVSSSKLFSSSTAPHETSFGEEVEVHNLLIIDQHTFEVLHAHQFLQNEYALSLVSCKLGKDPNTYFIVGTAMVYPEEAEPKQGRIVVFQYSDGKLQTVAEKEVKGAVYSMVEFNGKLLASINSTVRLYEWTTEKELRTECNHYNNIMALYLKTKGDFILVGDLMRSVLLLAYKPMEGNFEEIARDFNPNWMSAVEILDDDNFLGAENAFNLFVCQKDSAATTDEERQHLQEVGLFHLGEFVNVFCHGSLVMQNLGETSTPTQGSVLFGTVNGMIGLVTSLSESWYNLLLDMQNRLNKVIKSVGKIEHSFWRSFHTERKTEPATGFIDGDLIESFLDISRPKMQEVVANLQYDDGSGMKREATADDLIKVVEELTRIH

Structure (SMILES) | IC50 [1] | IC50 [2] | Dmax [3, 5] | DC50 ([3]; MCF-7 cells, 16 hrs) | DC50 ([4]; T47D cells, 16 hrs) | Dmax ([4]; T47D cells, 16 hrs) | ER MCF7 ICW Dmax (%) ([3]; MCF-7 cells, 16 hrs) | ER T47D ICW Dmax (%) ([4]; T47D cells, 16 hrs) | Dmax [3, 6] | Dmax [4]
C[C@@H]1Cc2c(ccc3[nH]ncc23)[C@@H](c2ccc(N3CCC4(CC3)CC(CN3CCN5c6ccc7c(c6OC[C@H]5C3)CN([C@H]3CCC(=O)NC3=O)C7=O)CO4)nc2)N1CC(F)(F)F (stereo partly drawn) [Compound A22, (3S)-3-((5aR)-7-((8-(5-((6S,8R)-8-methyl-7-(2,2,2-trifluoroethyl)-6,7,8,9-tetrahydro-3H-pyrazolo[4,3-f]isoquinolin-6-yl)pyridin-2-yl)-1-oxa-8-azaspiro[4.5]decan-3-yl)methyl)-1-oxo-1,3,5,5a,6,7,8,9-octahydro-2H-pyrazino[1′,2′:4,5][1,4]oxazino[2,3-e]isoindol-2-yl)piperidine-2,6-dione] | 50 to 500 nM | < 10 nM | 50 to 75% | < 1 nM | < 1 nM | 50 to 75% | – | – | – | –
C[C@@H]1Cc2c(ccc3[nH]ncc23)[C@@H](c2ccc(N3CC4(CCC(CN5CCN6c7ccc8c(c7OC[C@H]6C5)CN([C@H]5CCC(=O)NC5=O)C8=O)CC4)C3)cn2)N1CC1(F)CC1 [Compound A11, (S)-3-((R)-7-((2-(6-((6S,8R)-7-((1-fluorocyclopropyl)methyl)-8-methyl-6,7,8,9-tetrahydro-3H-pyrazolo[4,3-f]isoquinolin-6-yl)pyridin-3-yl)-2-azaspiro[3.5]nonan-7-yl)methyl)-1-oxo-1,3,5,5a,6,7,8,9-octahydro-2H-pyrazino[1′,2′: 4,5][1,4]oxazino[2,3-e]isoindol-2-yl)piperidine-2,6-dione] | – | ≥ 10 nM | > 75% | < 1 nM | < 1 nM | > 75% | – | – | – | –
COc1cc(N2CCC(CN3CCN4c5ccc6c(c5OCC4C3)CN(C3CCC(=O)NC3=O)C6=O)CC2)ccc1C1c2ccc3[nH]ncc3c2CC(C)N1CC(F)F (stereo in doubt) [Compound A8, (R)-3-((S)-7-((1-(4-((6R,8S)-7-(2,2-difluoroethyl)-8-methyl-6,7,8,9-tetrahydro-3H-pyrazolo[4,3-f]isoquinolin-6-yl)-3-methoxyphenyl)piperidin-4-yl)methyl)-1-oxo-1,3,5,5a,6,7,8,9-octahydro-2H-pyrazino[1′,2′:4,5][1,4]oxazino[2,3-e]isoindol-2-yl)piperidine-2,6-dione] | 500 to 5000 nM | ≥ 10 nM | – | < 1 nM | < 1 nM | – | A (“A”: >=75%) | A (“A”: >=75%) | – | –
C[C@@H]1Cc2c(ccc3[nH]ncc23)C(c2ccc(N3CCC4(CC3)CC(CN3CCN5c6ccc7c(c6OC[C@H]5C3)CN([C@H]3CCC(=O)NC3=O)C7=O)C4)nc2)N1CC(F)(F)F (stereo in doubt) [Compound A25, (S)-3-((R)-7-((7-(5-((6S,8R)-8-methyl-7-(2,2,2-trifluoroethyl)-6,7,8,9-tetrahydro-3H-pyrazolo[4,3-f]isoquinolin-6-yl)pyridin-2-yl)-7-azaspiro[3.5]nonan-2-yl)methyl)-1-oxo-1,3,5,5a,6,7,8,9-octahydro-2H-pyrazino[1′,2′: 4,5][1,4]oxazino[2,3-e]isoindol-2-yl)piperidine-2,6-dione] | – | < 10 nM | – | < 1 nM | < 1 nM | > 75% | – | – | > 75% | –
C[C@@H]1Cc2c(ccc3[nH]ncc23)[C@@H](c2ccc(N3CC4(CCC(CN5CCN6c7ccc8c(c7OC[C@H]6C5)CN(C5CCC(=O)NC5=O)C8=O)CC4)C3)cn2)N1CC1(F)CC1 (stereo partly drawn) [Compound A16, (S)-3-((R)-7-((2-(6-((6S,8R)-7-((1-fluorocyclopropyl)methyl)-8-methyl-6,7,8,9-tetrahydro-3H-pyrazolo[4,3-f]isoquinolin-6-yl)pyridin-3-yl)-2-azaspiro[3.5]nonan-7-yl)methyl)-1-oxo-1,3,5,5a,6,7,8,9-octahydro-2H-pyrazino[1′,2′: 4,5][1,4]oxazino[2,3-e]isoindol-2-yl)piperidine-2,6-dione] | – | < 10 nM | – | < 1 nM | < 1 nM | > 75% | – | – | > 75% | –
C[C@@H]1Cc2c(ccc3[nH]ncc23)[C@@H](c2ccc(N3CCC4(CC3)CC(CN3CCN5c6ccc7c(c6OC[C@H]5C3)CN([C@H]3CCC(=O)NC3=O)C7=O)C4)cn2)N1CC1(F)CC1 [Compound A4, (S)-3-((R)-7-((7-(6-((6S,8R)-7-((1-fluorocyclopropyl)methyl)-8-methyl-6,7,8,9-tetrahydro-3H-pyrazolo[4,3-f]isoquinolin-6-yl)pyridin-3-yl)-7-azaspiro[3.5]nonan-2-yl)methyl)-1-oxo-1,3,5,5a,6,7,8,9-octahydro-2H-pyrazino[1′,2′:4,5][1,4]oxazino[2,3-e]isoindol-2-yl)piperidine-2,6-dione] | < 50 nM | < 10 nM | 50 to 75% | < 1 nM | < 1 nM | > 75% | – | – | – | –
C[C@@H]1Cc2c(ccc3[nH]ncc23)[C@@H](c2ccc(N3CCC4(CC3)CC(CN3CCC5(CC3)COc3cc6c(cc35)CN([C@H]3CCC(=O)NC3=O)C6=O)C4)cn2)N1CC1(F)CC1 [Compound A5, (S)-3-(1′-((7-(6-((6S,8R)-7-((1-fluorocyclopropyl)methyl)-8-methyl-6,7,8,9-tetrahydro-3H-pyrazolo[4,3-f]isoquinolin-6-yl)pyridin-3-yl)-7-azaspiro[3.5]nonan-2-yl)methyl)-7-oxo-5,7-dihydro-2H,6H-spiro[furo[2,3-f]isoindole-3,4′-piperidin]-6-yl)piperidine-2,6-dione] | 50 to 500 nM | < 10 nM | – | < 1 nM | < 1 nM | – | – | – | 50 to 75% | 50 to 75%
